Converted amounts (≈) assume the structure as drawn.
Tests used:
[1] = target: T1, Cannabinoid receptor 1 (Homo sapiens, UniProt P21554); assay: Positive allosteric modulatory activity at human CB1 receptor expressed in CHO-K1 cells assessed as increase in CP55940-induced inhibition of forskolin-stimulated cAMP production preincubated for 30 mins followed by CP55940 addition and measured after 60 mins by Hit-hunter assay relative to control; format: functional, cell-based
[2] = target: T1, Cannabinoid receptor 1; assay: Positive allosteric modulatory activity at human CB1 receptor expressed in CHO-K1 cells assessed as increase in CP55940-induced beta-arrestin recruitment […] and measured after 60 mins by PathHunter assay; format: cell-based
[3] = target: T1, Cannabinoid receptor 1; assay: Positive allosteric modulatory activity at human CB1 receptor expressed in CHO-K1 cells assessed as increase in CP55940-induced inhibition of forskolin-stimulated cAMP production preincubated for 30 mins […] by Hit-hunter assay; format: functional, cell-based
[4] = target: T1, Cannabinoid receptor 1; assay: Positive allosteric modulatory activity at human CB1 receptor expressed in CHO-K1 cells assessed as increase in CP55940-induced beta-arrestin recruitment preincubated 90 mins followed by CP55940 addition and measured after 60 mins by PathHunter assay relative to CP55940; format: cell-based
[5] = physchem; details: PBS, pH 7.4
[6] = filed as positive allosteric modulator

T1 sequence (P21554 whole entry): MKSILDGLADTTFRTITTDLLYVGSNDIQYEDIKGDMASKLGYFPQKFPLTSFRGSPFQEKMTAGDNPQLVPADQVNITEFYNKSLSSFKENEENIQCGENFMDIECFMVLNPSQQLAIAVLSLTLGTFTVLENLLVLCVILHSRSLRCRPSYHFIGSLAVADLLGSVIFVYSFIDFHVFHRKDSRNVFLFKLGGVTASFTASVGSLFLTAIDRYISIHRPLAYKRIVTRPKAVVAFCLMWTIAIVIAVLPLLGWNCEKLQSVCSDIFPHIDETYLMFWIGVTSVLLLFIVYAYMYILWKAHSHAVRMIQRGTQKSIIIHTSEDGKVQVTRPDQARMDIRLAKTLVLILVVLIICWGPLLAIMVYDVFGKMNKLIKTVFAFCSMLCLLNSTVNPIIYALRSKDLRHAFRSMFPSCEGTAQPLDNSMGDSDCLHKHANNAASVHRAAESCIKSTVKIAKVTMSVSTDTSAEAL

Compound	Emax [1, 6] [%]	EC50 [2] [nM]	EC50 [3] [nM]	Emax [4] [%]	solubility kinetic at 2 h [5] [µM]	Emax [4, 6] [%]	Emax [1] [%]
O=[N+]([O-])CC(c1cccc2ccccc12)c1c(-c2ccccc2)[nH]c2ccccc12 (stereo not drawn)	62.2	> 10000	> 10000	0	–	–	–
O=[N+]([O-])CC(c1ccc(Cl)cc1)c1c(-c2ccccc2)[nH]c2ccccc12 (stereo not drawn)	74.8	> 10000	1320	0	–	–	–
O=[N+]([O-])CC(c1ccsc1)c1c(-c2ccccc2)[nH]c2ccccc12 (stereo not drawn)	125	1610	119	23.9	–	–	–
O=[N+]([O-])CC(c1cccs1)c1c(-c2ccccc2)[nH]c2ccccc12 (stereo not drawn)	116	584	31	36.1	–	–	–
CC(C)(C)c1ccc(C(C[N+](=O)[O-])c2c(-c3ccccc3)[nH]c3ccccc23)cc1 (stereo not drawn)	109	> 10000	203	5.57	–	–	–
O=[N+]([O-])CC(c1ccc(C(F)(F)F)cc1)c1c(-c2ccccc2)[nH]c2ccccc12 (stereo not drawn)	65.1	> 10000	> 10000	0	–	–	–
COc1ccccc1C(C[N+](=O)[O-])c1c(-c2ccccc2)[nH]c2ccccc12 (stereo not drawn)	118	1870	411	37	–	–	–
O=[N+]([O-])CC(c1ncco1)c1c(-c2ccccc2)[nH]c2ccccc12 (stereo not drawn)	56.6	> 10000	856	3.21	–	–	–
Cc1ccc2c(C(C[N+](=O)[O-])c3cccs3)c(-c3ccccc3)[nH]c2c1 (stereo not drawn)	–	379	33	–	1.56 (≈ 0.565 µg/mL)	78.2	–
O=[N+]([O-])CC(c1ccoc1)c1c(-c2ccccc2)[nH]c2ccccc12 (stereo not drawn)	144	> 10000	513	12.9	–	–	–
O=[N+]([O-])CC(c1ccc[nH]1)c1c(-c2ccccc2)[nH]c2ccccc12 (stereo not drawn)	77.1	> 10000	209	0.7	–	–	–
O=[N+]([O-])CC(c1ccccc1)c1c(-c2ccccc2)[nH]c2ccccc12 (stereo not drawn)	99.6	–	–	–	–	54.1	–
Cc1ccc(C(C[N+](=O)[O-])c2c(-c3ccccc3)[nH]c3ccccc23)cc1 (stereo not drawn)	119	> 10000	1440	0	–	–	–
O=[N+]([O-])CC(c1c(Cl)cccc1Cl)c1c(-c2ccccc2)[nH]c2ccccc12 (stereo not drawn)	128	> 10000	571	3.72	–	–	–
O=[N+]([O-])CC(Cc1ccccc1)c1c(-c2ccccc2)[nH]c2ccccc12 (stereo not drawn)	115	> 10000	420	0	–	–	–
O=[N+]([O-])CC(c1nccs1)c1c(-c2ccccc2)[nH]c2ccccc12 (stereo not drawn)	83.7	331	192	32.6	–	–	–
O=[N+]([O-])CC(c1ccc2ccccc2c1)c1c(-c2ccccc2)[nH]c2ccccc12 (stereo not drawn)	113	2340	483	31.8	–	–	–
O=[N+]([O-])CC(c1ccc(F)cc1)c1c(-c2ccccc2)[nH]c2ccccc12 (stereo not drawn)	–	> 10000	–	–	–	–	–
COc1ccc(C(C[N+](=O)[O-])c2c(-c3ccccc3)[nH]c3ccccc23)cc1 (stereo not drawn)	119	> 10000	1180	0	–	–	–
O=[N+]([O-])CC(c1cccc(N2CCCC2)c1)c1c(-c2ccccc2)[nH]c2ccccc12 (stereo not drawn)	110	> 10000	423	6.69	–	–	–
O=[N+]([O-])CC(c1ccco1)c1c(-c2ccccc2)[nH]c2ccccc12 (stereo not drawn)	99.8	655	245	28.8	–	–	–

Compound	Emax [1, 6] [%]	EC50 [2] [nM]	EC50 [3] [nM]	Emax [4] [%]	solubility kinetic at 2 h [5] [µM]	Emax [4, 6] [%]	Emax [1] [%]
Cc1ccc2c(C(C[N+](=O)[O-])c3ncco3)c(-c3ccccc3)[nH]c2c1 (stereo not drawn)	67.2	> 10000	261	14.5	12.5 (≈ 4.34 µg/mL)	–	–
O=[N+]([O-])CC(c1c(-c2ccccc2)[nH]c2ccccc12)C1CCCCC1 (stereo not drawn)	117	1900	495	26.8	–	–	–
O=[N+]([O-])CC(c1cccc(F)c1)c1c(-c2ccccc2)[nH]c2ccccc12 (stereo not drawn)	118	> 10000	–	15.7	–	–	–
Cn1ccnc1C(C[N+](=O)[O-])c1c(-c2ccccc2)[nH]c2ccccc12 (stereo not drawn)	52.7	> 10000	533	0	–	–	–
O=[N+]([O-])CC(c1ccccc1F)c1c(-c2ccccc2)[nH]c2ccccc12 (stereo not drawn)	–	782	–	–	–	56	–
O=[N+]([O-])CC(c1ccc(N2CCOCC2)cc1)c1c(-c2ccccc2)[nH]c2ccccc12 (stereo not drawn)	87.6	> 10000	> 10000	0	–	–	–
COc1cccc(C(C[N+](=O)[O-])c2c(-c3ccccc3)[nH]c3ccccc23)c1 (stereo not drawn)	131	> 10000	664	4.96	–	–	–
Cn1cnc(C(C[N+](=O)[O-])c2c(-c3ccccc3)[nH]c3ccccc23)c1 (stereo not drawn)	–	> 10000	> 10000	0.667	–	–	34.4
O=[N+]([O-])CC(c1ccccc1N1CCCC1)c1c(-c2ccccc2)[nH]c2ccccc12 (stereo not drawn)	75.9	> 10000	1820	7.28	–	–	–
O=[N+]([O-])CC(c1cccc(C(F)(F)F)c1)c1c(-c2ccccc2)[nH]c2ccccc12 (stereo not drawn)	151	> 10000	127	0	–	–	–
O=[N+]([O-])CC(c1ccc(N2CCCC2)cc1)c1c(-c2ccccc2)[nH]c2ccccc12 (stereo not drawn)	97.4	> 10000	618	0	–	–	–
O=[N+]([O-])CC(c1cccc(Cl)c1)c1c(-c2ccccc2)[nH]c2ccccc12 (stereo not drawn)	121	2980	859	16	–	–	–
O=[N+]([O-])CC(c1ccc(N2CCCCC2)cc1)c1c(-c2ccccc2)[nH]c2ccccc12 (stereo not drawn)	125	2460	476	–	–	42.1	–
O=[N+]([O-])CC(c1ccc(-c2ccccc2)cc1)c1c(-c2ccccc2)[nH]c2ccccc12 (stereo not drawn)	–	> 10000	> 10000	5	–	–	25.5
Cc1ccccc1C(C[N+](=O)[O-])c1c(-c2ccccc2)[nH]c2ccccc12 (stereo not drawn)	81.7	57	3	–	–	68.5	–
O=[N+]([O-])CC(c1ccccc1C(F)(F)F)c1c(-c2ccccc2)[nH]c2ccccc12 (stereo not drawn)	86.2	792	557	–	–	68.1	–
Cc1cccc(C(C[N+](=O)[O-])c2c(-c3ccccc3)[nH]c3ccccc23)c1 (stereo not drawn)	116	1990	662	23.8	–	–	–
Cc1ccc2c(C(C[N+](=O)[O-])c3nccs3)c(-c3ccccc3)[nH]c2c1 (stereo not drawn)	98.5	163	50	–	3.13 (≈ 1.14 µg/mL)	80.6	–
O=[N+]([O-])CC(c1ccccc1Cl)c1c(-c2ccccc2)[nH]c2ccccc12 (stereo not drawn)	75	1240	18	–	–	93.4	–
Cn1cncc1C(C[N+](=O)[O-])c1c(-c2ccccc2)[nH]c2ccccc12 (stereo not drawn)	46.1	> 10000	> 10000	0	–	–	–

Reference: ChEMBL document CHEMBL4665860, “Focused structure-activity relationship profiling around the 2-phenylindole scaffold of a cannabinoid type-1 receptor agonist-positive allosteric modulator: site-III aromatic-ring congeners with enhanced activity and solubility” (Bioorg Med Chem, 2020)
